What was measured:
[1] = molecular target: CDK2/CyclinE (Homo sapiens (Human), UniProt P24941); experiment: CDK2/CycE kinase assay (TR-FRET); format: biochemical; conditions: 2 mM ATP (high ATP); median; read-out: CDK2/CyclinE, 2 mM ATP (high ATP), IC50 - [mol/l] (median)
Text: CDK2/CycE-inhibitory activity of compounds of the present invention was quantified employing the CDK2/CycE TR-FRET assay as described in the following paragraphs.
Recombinant fusion proteins of GST and human CDK2 and of GST and human CycE, expressed in insect cells (Sf9) and purified by Glutathion-Sepharose affinity chromatography, were purchased from ProQinase GmbH (Freiburg, Germany). As substrate for the kinase reaction biotinylated peptide biotin-Ttds-YISPLKSPYKISEG (C-terminus in amid form) was used which can be purchased e.g. form the company JERINI peptide technologies (Berlin, Germany).
For the assay 50 nanoL of a 100 fold concentrated solution of the test compound in DMSO was pipetted into a black low volume 384 well microtiter plate or a black 1536 well microtiter plate (both Greiner Bio-One, Frickenhausen, Germany), 2 microL of a solution of CDK2/CycE in aqueous assay buffer [50 millimol/L Tris/HCl PH 8.0, 10 millimol/L MgCl2, 1.0 millimol/L dithiothreitol, 0.1 millimol/L sodium ortho-vanadate, 0.01% (v/v) Nonidet-P40 (Sigma)] were added and the mixture was incubated for 15 min at 22° C. to allow pre-binding of the test compounds to the enzyme before the start of the kinase reaction. Then the kinase reaction was started by the addition of 3 microL of a solution of adenosine-tri-phosphate (ATP, 3.33 millimol/L=>final conc. in the 5 microL assay volume is 2 millimol/L) and substrate (1.25 micromol/L=>final conc. in the 5 microL assay volume is 0.75 micromol/L) in assay buffer and the resulting mixture was incubated for a reaction time of 25 min at 22° C. The concentration of CDK2/CycE was adjusted depending of the activity of the enzyme lot and was chosen appropriate to have the assay in the linear range, typical concentrations were in the range of 10 ng/ml. The reaction was stopped by the addition of 3 microL of a solution of TR-FRET detection reagents (0.333 micromol/L streptavidine-XL665 [Cisbio Bioassays, Codolet, France] and 1.67 nanomol/L anti-RB (pSer807/pSer811)-antibody from BD Pharmingen [#558389] and 2 nanomol/L LANCE EU-W1024 labeled anti-mouse IgG antibody [Perkin-Elmer, product no. AD0077, as an alternative a Terbium-cryptate-labeled anti-mouse IgG antibody from Cisbio Bioassays can be used]) in an aqueous EDTA-solution (167 millimol/L EDTA, 0.2% (w/v) bovine serum albumin in 100 millimol/L HEPES pH 7.5).
The resulting mixture was incubated 1 h at 22° C. to allow the formation of complex between the phosphorylated biotinylated peptide and the detection reagents. Subsequently the amount of phosphorylated substrate was evaluated by measurement of the resonance energy transfer from the Eu-chelate to the streptavidine-XL. Therefore, the fluorescence emissions at 620 nm and 665 nm after excitation at 350 nm was measured in a TR-FRET reader, e.g. a Pherastar (BMG Labtechnologies, Offenburg, Germany) or a Viewlux (Perkin-Elmer). The ratio of the emissions at 665 nm and at […] was taken as the measure for the amount of phosphorylated substrate. The data were normalised (enzyme reaction without inhibitor=0% inhibition, all other assay components but no enzyme=100% inhibition).

[2] = test system: CAL-120, human breast adenocarcinoma cells; experiment: Proliferation assay CAL-120 (crystal violet); format: cell-based; conditions: 96 h, CAL-120 parental cells, 4 days, median, read-out: Prolif-CAL-120, IC50 - [mol/l] (median)
Experimental: Human tumour cells were originally obtained from the American Type Culture Collection (ATCC), or from the Deutsche Sammlung von Mikroorganismen und Zellkulturen (DSMZ, German Collection of Microorganisms and Cell Cultures). Cultivated tumour cells (CAL-120, human breast adenocarcinoma cells, DSMZ ACC-459; MDA-MB-231, human breast cancer cells, ATCC HTB-26) were plated at a density of 4,000 cells/well in a 96-well multitier plate in 200 microL of their respective growth medium supplemented 10% fetal calf serum. After 24 hours, the cells of one plate (zero-point plate) were stained with crystal violet (see below), while the medium of the other plates was supplemented with the test substances in various concentrations (0 micromol/L, as well as in the range of 0.01-10 micromol/L; the final concentration of the solvent dimethyl sulfoxide was adjusted to 0.1%) using a Tecan HP D300 Digital Dispenser. The cells were incubated for 4 days in the presence of test substances. Cell proliferation was determined by staining the cells with crystal violet: the cells were fixed by adding 20 microL/measuring point of an 11% glutaric aldehyde solution for 15 minutes at room temperature. After three washing cycles of the fixed cells with water, the plates were dried at room temperature. The cells were stained by adding 100 microL/measuring point of a 0.1% crystal violet solution (pH 3.0). After three washing cycles of the stained cells with water, the plates were dried at room temperature. The dye was dissolved by adding 100 microL/measuring point of a 10% acetic acid solution. The extinction was determined by photometry at a wavelength of 595 nm. The change of cell number, in percent, was calculated by normalization of the measured values to the extinction values of the zero-point plate (=0%) and the extinction of the untreated (0 μM) cells (=100%). The IC50 values (inhibitory concentration at 50% of maximal effect) were determined by means of a 4 parameter fit.

Structure (SMILES) | IC50 [1] [nM] | IC50 [2] [nM]
FC(F)(F)Oc1ccc(-c2nnc(CNc3nc(N4CCOCC4)nc4c(C(F)(F)F)cnn34)[nH]2)cc1 [Example 5, 2-(morpholin-4-yl)-N-({5-[4-(trifluoromethoxy)phenyl]-4H-1,2,4-triazol-3-yl}methyl)-8-(trifluoromethyl)pyrazolo[1,5-a][1,3,5]triazin-4-amine] | > 20000 | 319
FC(F)(F)c1ccc(-c2nnc(CNc3nc(N4CCOCC4)nn4c(C(F)(F)F)cnc34)[nH]2)cc1 [Example 11, 2-(morpholin-4-yl)-7-(trifluoromethyl)-N-({5-[4-(trifluoromethyl)phenyl]-4H-1,2,4-triazol-3-yl}methyl)imidazo[2,1-f][1,2,4]triazin-4-amine] | > 20000 | 419
COc1ccc(-c2cnc(CNc3nc(N4CCOCC4)nc4c(C(F)(F)F)cnn34)[nH]2)cn1 [Example 21, N-{[5-(6-methoxypyridin-3-yl)-1H-imidazol-2-yl]methyl}-2-(morpholin-4-yl)-8-(trifluoromethyl)pyrazolo[1,5-a][1,3,5]triazin-4-amine] | 6390 | 99
COc1ccc(-c2nnc(CNc3nc(N4CCOCC4)nc4c(C(F)(F)F)cnn34)[nH]2)cn1 [Example 15, N-{[5-(6-methoxypyridin-3-yl)-4H-1,2,4-triazol-3-yl]methyl}-2-(morpholin-4-yl)-8-(trifluoromethyl)pyrazolo[1,5-a][1,3,5]triazin-4-amine] | 3120 | 355
FC(F)(F)Oc1ccc(-c2nnc(CNc3nc(N4CCOCC4)nn4c(C(F)(F)F)cnc34)[nH]2)cn1 [Example 19, 2-(morpholin-4-yl)-N-({5-[6-(trifluoromethoxy)pyridin-3-yl]-4H-1,2,4-triazol-3-yl}methyl)-7-(trifluoromethyl)imidazo[2,1-f][1,2,4]triazin-4-amine] | > 20000 | 63.2
Cc1ccc(-c2nnc(CNc3nc(N4CCOCC4)nn4c(C(F)(F)F)cnc34)[nH]2)cn1 [Example 23, N-{[5-(6-methylpyridin-3-yl)-4H-1,2,4-triazol-3-yl]methyl}-2-(morpholin-4-yl)-7-(trifluoromethyl)imidazo[2,1-f][1,2,4]triazin-4-amine] | 2860 | 99.3
FC(F)(F)c1ccc(-c2cnc(CNc3nc(N4CCOCC4)nc4c(Br)cnn34)[nH]2)cc1 [Example 3, 8-bromo-2-(morpholin-4-yl)-N-({5-[4-(trifluoromethyl)phenyl]-1H-imidazol-2-yl}methyl)pyrazolo[1,5-a][1,3,5]triazin-4-amine] | 7920 | 173
FC(F)(F)Oc1ccc(-c2cnc(CNc3nc(N4CCOCC4)nc4c(C(F)(F)F)cnn34)[nH]2)cc1 [Example 10, 2-(morpholin-4-yl)-N-({5-[4-(trifluoromethoxy)phenyl]-1H-imidazol-2-yl}methyl)-8-(trifluoromethyl)pyrazolo[1,5-a][1,3,5]triazin-4-amine] | > 20000 | 69.8
FC(F)(F)c1ccc(-c2nnc(CNc3nc(N4CCOCC4)nn4c(C(F)(F)F)cnc34)[nH]2)cn1 [Example 20, 2-(morpholin-4-yl)-7-(trifluoromethyl)-N-({5-[6-(trifluoromethyl)pyridin-3-yl]-4H-1,2,4-triazol-3-yl}methyl)imidazo[2,1-f][1,2,4]triazin-4-amine] | > 5710 | 83.5
FC(F)(F)c1ccc(-c2cnc(CNc3nc(N4CCOCC4)nn4c(C(F)(F)F)cnc34)[nH]2)cn1 [Example 12, 2-(morpholin-4-yl)-7-(trifluoromethyl)-N-({5-[6-(trifluoromethyl)pyridin-3-yl]-1H-imidazol-2-yl}methyl)imidazo[2,1-f][1,2,4]triazin-4-amine] | > 20000 | 14.8
FC(F)(F)c1ccc(-c2nnc(CNc3nc(N4CCOCC4)nc4c(Br)cnn34)[nH]2)cc1 [Example 1, 8-bromo-2-(morpholin-4-yl)-N-({5-[4-(trifluoromethyl)phenyl]-4H-1,2,4-triazol-3-yl}methyl)pyrazolo[1,5-a][1,3,5]triazin-4-amine] | 9810 | 580
FC(F)(F)Oc1ccc(-c2cnc(CNc3nc(N4CCOCC4)nn4c(C(F)(F)F)cnc34)[nH]2)cc1 [Example 8, 2-(morpholin-4-yl)-N-({5-[4-(trifluoromethoxy)phenyl]-1H-imidazol-2-yl}methyl)-7-(trifluoromethyl)imidazo[2,1-f][1,2,4]triazin-4-amine] | > 20000 | 90.7
COc1ccc(-c2nnc(CNc3nc(N4CCOCC4)nn4c(C(F)(F)F)cnc34)[nH]2)cn1 [Example 18, N-{[5-(6-methoxypyridin-3-yl)-4H-1,2,4-triazol-3-yl]methyl}-2-(morpholin-4-yl)-7-(trifluoromethyl)imidazo[2,1-f][1,2,4]triazin-4-amine] | – | 104
FC(F)(F)Oc1ccc(-c2nnc(CNc3nc(N4CCOCC4)nn4c(C(F)(F)F)cnc34)[nH]2)cc1 [Example 14, 2-(morpholin-4-yl)-N-({5-[4-(trifluoromethoxy)phenyl]-4H-1,2,4-triazol-3-yl}methyl)-7-(trifluoromethyl)imidazo[2,1-f][1,2,4]triazin-4-amine] | > 20000 | 248
FC(F)(F)c1ccc(-c2nnc(CNc3nc(N4CCOCC4)nc4c(C(F)(F)F)cnn34)[nH]2)cc1 [Example 6, 2-(morpholin-4-yl)-8-(trifluoromethyl)-N-({5-[4-(trifluoromethyl)phenyl]-4H-1,2,4-triazol-3-yl}methyl)pyrazolo[1,5-a][1,3,5]triazin-4-amine] | > 20000 | 224
FC(F)(F)Oc1ccc(-c2cnc(CNc3nc(N4CCOCC4)nc4c(Br)cnn34)[nH]2)cc1 [Example 4, 8-bromo-2-(morpholin-4-yl)-N-({5-[4-(trifluoromethoxy)phenyl]-1H-imidazol-2-yl}methyl)pyrazolo[1,5-a][1,3,5]triazin-4-amine] | 10400 | 103
FC(F)(F)c1ccc(-c2cnc(CNc3nc(N4CCOCC4)nc4c(C(F)(F)F)cnn34)[nH]2)cn1 [Example 24, 2-(morpholin-4-yl)-8-(trifluoromethyl)-N-({5-[6-(trifluoromethyl)pyridin-3-yl]-1H-imidazol-2-yl}methyl)pyrazolo[1,5-a][1,3,5]triazin-4-amine] | – | 30.2
FC(F)(F)c1ccc(-c2cnc(CNc3nc(N4CCOCC4)nn4c(C(F)(F)F)cnc34)[nH]2)cc1 [Example 7, 2-(morpholin-4-yl)-7-(trifluoromethyl)-N-({5-[4-(trifluoromethyl)phenyl]-1H-imidazol-2-yl}methyl)imidazo[2,1-f][1,2,4]triazin-4-amine] | > 20000 | 103

Source: US20250066370A1, “BICYCLIC TRIAZINE DERIVATIVES FOR THE TREATMENT OF CANCER” (DEUTSCHES KREBSFORSCHUNGSZENTRUM, priority 2022, published 2025)
